Source: US8791108B2, “Inhibitors of human immunodeficiency virus replication” (priority 2011, dated 2014)
pEC50: −log10 of the molar value. Like-named read-outs stand apart in the source and are kept apart here.

Test system: recombinant NL-Rluc virus
Experiment: Inhibition of HIV replication (NL-RLuc luciferase reporter virus, MT-2 cells)
Type: cell-based
Conditions: Human immunodeficiency virus 1, MT2, 120 h; for pEC50: read-out: Activity; for EC50: read-out: EC50 μM

Cc1nc2cc(C(=O)N3CCC(c4ccc(F)cc4)CC3)nn2c(-c2cc(F)c3c(c2C)CCCO3)c1[C@H](OC(C)(C)C)C(=O)O (atropisomer, axis not shown) [Example 138, (S)-2-(tert-Butoxy)-2-((S)-7-(8-fluoro-5-methylchroman-6-yl)-2-(4-(4-fluorophenyl)piperidine-1-carbonyl)-5-methylpyrazolo[1,5-a]pyrimidin-6-yl)acetic acid]
pEC50: > 7.00

Cc1nc2cc(C(=O)NCc3ccc(F)cc3-n3nncc3C)nn2c(-c2cc(F)c3c(c2C)CCCO3)c1[C@H](OC(C)(C)C)C(=O)O [Example 10, (2S)-2-(tert-butoxy)-2-(2-((4-fluoro-2-(5-methyl-1H-1,2,3-triazol-1-yl)benzyl)carbamoyl)-7-(8-fluoro-5-methylchroman-6-yl)-5-methylpyrazolo[1,5-a]pyrimidin-6-yl)acetic acid]
pEC50: 6.00 to 7.00

Cc1cc(CNC(=O)c2nn3c(-c4cc(F)c5c(c4C)CCCO5)c([C@H](OC(C)(C)C)C(=O)O)c(C)nc3c2F)ccc1F [Example 139, (2S)-2-(tert-Butoxy)-2-(3-fluoro-2-((4-fluoro-3-methylbenzyl)carbamoyl)-7-(8-fluoro-5-methylchroman-6-yl)-5-methylpyrazolo[1,5-a]pyrimidin-6-yl)acetic acid]
pEC50: > 7.00

Cc1nc2cc(C(=O)NCCC34C[C@H]5C[C@@H](C3)C[C@@H](C4)C5)nn2c(-c2cc(F)c3c(c2C)CCCO3)c1[C@H](OC(C)(C)C)C(=O)O [Example 130]
pEC50: > 7.00

Cc1nc2cc(C(=O)N(C)CCC(C)C)nn2c(-c2cc(F)c3c(c2C)CCCO3)c1[C@H](OC(C)(C)C)C(=O)O [Example 98, (2S)-2-(tert-butoxy)-2-(7-(8-fluoro-5-methylchroman-6-yl)-2-(isopentyl(methyl)carbamoyl)-5-methylpyrazolo[1,5-a]pyrimidin-6-yl)acetic acid]
pEC50: > 7.00

Cc1nc2cc(C(=O)NCC(C)(C)C)nn2c(-c2cc(F)c3c(c2C)CCCO3)c1[C@H](OC(C)(C)C)C(=O)O [Example 127, (2S)-2-(tert-butoxy)-2-(7-(8-fluoro-5-methylchroman-6-yl)-5-methyl-2-(neopentylcarbamoyl)pyrazolo[1,5-a]pyrimidin-6-yl)acetic acid]
pEC50: 6.00 to 7.00

Cc1nc2cc(C(=O)N(C)Cc3ccc(Cl)c(Cl)c3)nn2c(-c2cc(F)c3c(c2C)CCCO3)c1[C@H](OC(C)(C)C)C(=O)O [Example 115, (2S)-2-(tert-butoxy)-2-(2-((3,4-dichlorobenzyl)(methyl)carbamoyl)-7-(8-fluoro-5-methylchroman-6-yl)-5-methylpyrazolo[1,5-a]pyrimidin-6-yl)acetic acid]
pEC50: > 7.00

Cc1nc2cc(C(=O)NCCCN3CCOCC3)nn2c(-c2cc(F)c3c(c2C)CCCO3)c1[C@H](OC(C)(C)C)C(=O)O [Example 107]
pEC50: < 6.00

COc1ccc(CNC(=O)c2cc3nc(C)c([C@H](OC(C)(C)C)C(=O)O)c(-c4cc(F)c5c(c4C)CCCO5)n3n2)cc1OC [Example 41, (2S)-2-(tert-butoxy)-2-(2-((3,4-dimethoxybenzyl)carbamoyl)-7-(8-fluoro-5-methylchroman-6-yl)-5-methylpyrazolo[1,5-a]pyrimidin-6-yl)acetic acid]
pEC50: 6.00 to 7.00

CCCCOc1cc(F)ccc1CNC(=O)c1cc2nc(C)c([C@H](OC(C)(C)C)C(=O)O)c(-c3ccc4c(c3Cl)NCCO4)n2n1 [Example 143, (2S)-2-(tert-Butoxy)-2-(2-((2-butoxy-4-fluorobenzyl)carbamoyl)-7-(5-chloro-3,4-dihydro-2H-benzo[b][1,4]oxazin-6-yl)-5-methylpyrazolo[1,5-a]pyrimidin-6-yl)acetic acid]
pEC50: > 7.00
EC50: 0.028 µM

CCc1ccc(CN(C)C(=O)c2cc3nc(C)c([C@H](OC(C)(C)C)C(=O)O)c(-c4cc(F)c5c(c4C)CCCO5)n3n2)cc1 [Example 21, (2S)-2-(tert-butoxy)-2-(2-((4-ethylbenzyl)(methyl)carbamoyl)-7-(8-fluoro-5-methylchroman-6-yl)-5-methylpyrazolo[1,5-a]pyrimidin-6-yl)acetic acid]
pEC50: > 7.00

Cc1nc2cc(C(=O)NCc3ccccc3Cl)nn2c(-c2cc(F)c3c(c2C)CCCO3)c1[C@H](OC(C)(C)C)C(=O)O [Example 40, (2S)-2-(tert-butoxy)-2-(2-((2-chlorobenzyl)carbamoyl)-7-(8-fluoro-5-methylchroman-6-yl)-5-methylpyrazolo[1,5-a]pyrimidin-6-yl)acetic acid]
pEC50: > 7.00

Cc1nc2cc(C(=O)NCc3ccc(F)cc3-n3cncn3)nn2c(-c2cc(F)c3c(c2C)CCCO3)c1[C@H](OC(C)(C)C)C(=O)O [Example 11, (2S)-2-(tert-butoxy)-2-(2-((4-fluoro-2-(1H-1,2,4-triazol-1-yl)benzyl)carbamoyl)-7-(8-fluoro-5-methylchroman-6-yl)-5-methylpyrazolo[1,5-a]pyrimidin-6-yl)acetic acid]
pEC50: 6.00 to 7.00

Cc1nc2cc(C(=O)NCc3nc4ccccc4s3)nn2c(-c2cc(F)c3c(c2C)CCCO3)c1[C@H](OC(C)(C)C)C(=O)O [Example 122, (2S)-2-(2-((benzo[d]thiazol-2-ylmethyl)carbamoyl)-7-(8-fluoro-5-methylchroman-6-yl)-5-methylpyrazolo[1,5-a]pyrimidin-6-yl)-2-(tert-butoxy)acetic acid]
pEC50: > 7.00

Cc1nc2cc(C(=O)NCC3CCN(C(=O)C(C)C)CC3)nn2c(-c2cc(F)c3c(c2C)CCCO3)c1[C@H](OC(C)(C)C)C(=O)O [Example 2, (2S)-2-(tert-Butoxy)-2-(7-(8-fluoro-5-methylchroman-6-yl)-2-(((1-isobutyrylpiperidin-4-yl)methyl)carbamoyl)-5-methylpyrazolo[1,5-a]pyrimidin-6-yl)acetic acid]
pEC50: < 6.00

Cc1nc2cc(C(=O)NCc3cccc(OC(F)(F)F)c3)nn2c(-c2cc(F)c3c(c2C)CCCO3)c1[C@H](OC(C)(C)C)C(=O)O [Example 67]
pEC50: > 7.00
EC50: 0.009 µM

CCCCc1ccc(CNC(=O)c2cc3nc(C)c([C@H](OC(C)(C)C)C(=O)O)c(-c4cc(F)c5c(c4C)CCCO5)n3n2)cc1 [Example 31, (2S)-2-(tert-butoxy)-2-(2-((4-butylbenzyl)carbamoyl)-7-(8-fluoro-5-methylchroman-6-yl)-5-methylpyrazolo[1,5-a]pyrimidin-6-yl)acetic acid]
pEC50: > 7.00

Cc1nc2cc(C(=O)NC3CCN(Cc4ccccc4)C3)nn2c(-c2cc(F)c3c(c2C)CCCO3)c1[C@H](OC(C)(C)C)C(=O)O (stereo partly drawn) [Example 82, (2S)-2-(2-((1-benzylpyrrolidin-3-yl)carbamoyl)-7-(8-fluoro-5-methylchroman-6-yl)-5-methylpyrazolo[1,5-a]pyrimidin-6-yl)-2-(tert-butoxy)acetic acid]
pEC50: 6.00 to 7.00

Cc1nc2cc(C(=O)N3CCC(c4ccccc4)CC3)nn2c(-c2cc(F)c3c(c2C)CCCO3)c1[C@H](OC(C)(C)C)C(=O)O [Example 78, (2S)-2-(tert-butoxy)-2-(7-(8-fluoro-5-methylchroman-6-yl)-5-methyl-2-(4-phenylpiperidine-1-carbonyl)pyrazolo[1,5-a]pyrimidin-6-yl)acetic acid]
pEC50: > 7.00

Cc1nc2cc(C(=O)NCCCC3CCCCC3)nn2c(-c2cc(F)c3c(c2C)CCCO3)c1[C@H](OC(C)(C)C)C(=O)O [Example 131]
pEC50: > 7.00

CCCNC(=O)c1cc2nc(C)c([C@H](OC(C)(C)C)C(=O)O)c(-c3cc(F)c4c(c3C)CCCO4)n2n1 [Example 124, (2S)-2-(tert-butoxy)-2-(7-(8-fluoro-5-methylchroman-6-yl)-5-methyl-2-(propylcarbamoyl)pyrazolo[1,5-a]pyrimidin-6-yl)acetic acid]
pEC50: 6.00 to 7.00

Cc1nc2cc(C(=O)NCc3ccc(Cl)cc3Cl)nn2c(-c2cc(F)c3c(c2C)CCCO3)c1[C@H](OC(C)(C)C)C(=O)O [Example 108, (2S)-2-(tert-butoxy)-2-(2-((2,4-dichlorobenzyl)carbamoyl)-7-(8-fluoro-5-methylchroman-6-yl)-5-methylpyrazolo[1,5-a]pyrimidin-6-yl)acetic acid]
pEC50: > 7.00
EC50: 0.013 µM

CCCCCc1ccccc1CNC(=O)c1cc2nc(C)c([C@H](OC(C)(C)C)C(=O)O)c(-c3ccc4c(c3Cl)NCCO4)n2n1 [Example 142, (2S)-2-(tert-Butoxy)-2-(7-(5-chloro-3,4-dihydro-2H-benzo[b][1,4]oxazin-6-yl)-5-methyl-2-((2-pentylbenzyl)carbamoyl)pyrazolo[1,5-a]pyrimidin-6-yl)acetic acid]
pEC50: > 7.00

CCc1cc(CNC(=O)c2cc3nc(C)c([C@H](OC(C)(C)C)C(=O)O)c(-c4cc(F)c5c(c4C)CCCO5)n3n2)ccc1F [Example 24, (2S)-2-(tert-butoxy)-2-(2-((3-ethyl-4-fluorobenzyl)carbamoyl)-7-(8-fluoro-5-methylchroman-6-yl)-5-methylpyrazolo[1,5-a]pyrimidin-6-yl)acetic acid]
pEC50: > 7.00

Cc1nc2cc(C(=O)NCCc3ccc(Cl)cc3)nn2c(-c2cc(F)c3c(c2C)CCCO3)c1[C@H](OC(C)(C)C)C(=O)O [Example 112, (2S)-2-(tert-butoxy)-2-(2-((4-chlorophenethyl)carbamoyl)-7-(8-fluoro-5-methylchroman-6-yl)-5-methylpyrazolo[1,5-a]pyrimidin-6-yl)acetic acid]
pEC50: > 7.00

Cc1nc2cc(C(=O)NCc3cccc(N4CCOCC4)c3)nn2c(-c2cc(F)c3c(c2C)CCCO3)c1[C@H](OC(C)(C)C)C(=O)O [Example 100]
pEC50: 6.00 to 7.00

CNC(=O)c1cc(F)ccc1CNC(=O)c1cc2nc(C)c([C@H](OC(C)(C)C)C(=O)O)c(-c3cc(F)c4c(c3C)CCCO4)n2n1 [Example 30, (2S)-2-(tert-butoxy)-2-(2-((4-fluoro-2-(methylcarbamoyl)benzyl)carbamoyl)-7-(8-fluoro-5-methylchroman-6-yl)-5-methylpyrazolo[1,5-a]pyrimidin-6-yl)acetic acid]
pEC50: 6.00 to 7.00
EC50: 3.2 µM

Cc1cc(CNC(=O)c2cc3nc(C)c([C@H](OC(C)(C)C)C(=O)O)c(C4=CCC(C)(C)CC4)n3n2)ccc1F [Example 147, (S)-2-(tert-butoxy)-2-(7-(4,4-dimethylcyclohex-1-en-1-yl)-2-((4-fluoro-3-methylbenzyl)carbamoyl)-5-methylpyrazolo[1,5-a]pyrimidin-6-yl)acetic acid]
pEC50: > 7.00
